Assay results reported in paper PMC7408547, “Bivalent Inhibitor with Selectivity for Trimeric MMP-9 Amplifies Neutrophil Chemotaxis and Enables Functional Studies on MMP-9 Proteoforms” (Cells, 2020).
“Also recorded” adds a separate entry of the source.

What was measured:
[1] = tested on: C57BL/6 mice; assay: Mouse endotoxemia model; assay type: in vivo; conditions: for levels of MMP-9 in plasma and lungs (Western blot): 5 h after LPS/compound administration
Description: Endotoxemia was induced in 8-week old C57BL/6 mice by intraperitoneal (i.p.) injection of lipopolysaccharides (LPS) (Escherichia coli 0111:B4, cat. no. 4391, Sigma-Aldrich, St. Louis, MO, USA ) at 10 mg/kg. Control mice were injected with an equal volume of vehicle (pyrogen-free phosphate-buffered saline). A volume of 500 µl compound 5 or 7, diluted in PBS with 2% DMSO (2 mg/mL), was injected i.p. at the same time as the LPS injection (± 50 mg/kg). […] After induction of endotoxemia, progression of the disease was monitored by hourly evaluation of mouse body temperature (rectal probe) and disease scoring by use of the mouse sepsis score (MSS) as described. When the MSS score was above 21, humane endpoints were reached and mice were sacrificed. Blood was collected by cardiac puncture with a heparin-coated needle and syringe, and immediately processed by centrifugation (2000× g for 10 min at 4 °C). The supernatant (plasma) was collected and stored for further analysis. Mice were dissected and organs were stored for further analysis. Bone marrow cells were collected from femora by flushing the medullary cavity with PBS and after centrifugation the cell pellet was immediately processed for downstream analysis. All procedures were conducted in accordance with protocols approved by the local ethics committee (project number P128/2019, KU Leuven, Belgium).
Tissues were homogenized and proteins extracted with a Precellys lysing kit (Bertin Technologies, Rockville, MD, USA). Briefly, tissues were placed in hard tissue homogenizing CK28 tubes (Bertin Technologies, Rockville, MD, USA). Then, 600 µL of RIPA buffer was added to all tubes and homogenization was done using the Precellys®24 (Bertin Technologies, Rockville, MD, USA). To precipitate all tissue debris, the tubes were centrifuged at 20,800× g and 4 °C for 15 min. Supernatant, containing soluble proteins, was collected and used for further analysis. Total protein content of all samples was determined by using a standard Bradford assay (Bio-Rad, Hercules, CA, USA). […] Proteins were transferred to PVDF membranes using the Trans-Blot Turbo Transfer System with associated materials and protocols (Biorad, Hercules, CA, USA). Next, membranes were blocked for 1 h in 5% BSA with TBST buffer (150 mM NaCl, 0.1% Tween 20, 50 mM Tris, pH 7.5). Membranes were incubated overnight with anti-MMP-9 (AF909, R & D systems, Minneapolis, MO, USA) or anti-tubulin (MA5-16308-HRP, Invitrogen, Carlsbad, CA, USA) antibodies. After washing, the blot was incubated with peroxidase-conjugated anti-goat IgG (PI-9500, Vector Labs, Burlingame, CA, USA) or anti-mouse IgG (115-035-071, Jackson ImmunoResearch, PA, USA) for 1 h at room temperature. […]

[2] = tested on: C57BL/6 mice; assay: Mouse air pouch model of in vivo chemotaxis towards LPS; conditions: for total amount of white blood cells recruited to the pouches: compound 5 µg with LPS 2 µg, 4 h after injection
Description: Air pouches were established by injecting C57BL/6 mice on dorsal sites with 3 mL filtered air (0.20 μm filter) on days 0 and 3. On day 6, test samples were injected in a total volume of 1 mL and at the indicated amount. After 4 h, mice were euthanized and the exudates of the pouches were collected after injection of 1 mL pyrogen-free PBS containing 20 U/mL heparin and 2% KnockOut™ Serum Replacement (Gibco, Waltham, MA, USA), and followed by 30 sec of gentle massage. This procedure was repeated twice with 2 mL buffer. Next, the pouch fluid was centrifuged (10 min, 500× g) and supernatant and cell pellets were separated for further analysis. Data were collected during three independent experiments with 3–4 mice per group. All procedures were conducted in accordance with protocols approved by the local Ethics Committee (License number P033/2018, Belgium).
For microscopic evaluation of cells derived from air pouches, 75 × 10^3 cells were deposited evenly onto a glass slide by centrifugation using a Shandon Cytospin 2 apparatus (Thermo Shandon, Pittsburgh, PA, USA). Next, the preparations were stained with Hemacolor (Merck Chemicals, Darmstadt, Germany). Cells were divided into 4 categories; neutrophils, monocytes/macrophages, lymphocytes and other cells. For each condition, three times 100 cells were counted and the average was used as a final value.
Approximately 10^6 cells were incubated for 15 min with the Fc-receptor-blocking antibodies anti-CD16/anti-CD32 (BD Biosciences Pharmingen, San Diego, CA, USA) and with a Zombie Aqua™ viability dye (BioLegend, San Diego, CA, USA). […] Cells were analyzed on a BD LSR Fortessa X20 with DIVA software (BD, Franklin Lakes, NJ, USA, v9.0). Results were further analyzed with the FlowJo software (BD, Franklin Lakes, NJ, USA, v10.0). […]

[3] = 10 mg/kg LPS i.p. and ± 50 mg/kg compound i.p. simultaneously, hourly

CC(C)[C@H](C(=O)O)N(CCNC(=O)c1cccc(C(=O)NCCN([C@@H](C(=O)O)C(C)C)S(=O)(=O)c2ccc(-c3ccccc3)cc2)c1)S(=O)(=O)c1ccc(-c2ccccc2)cc1 [Compound 7]
disease score (mouse sepsis score, MSS) [1, 3]: (although not significant) increase in disease score; also recorded: did not alter disease scores compared to compound 5
mouse body temperature [1, 3]: early and significant drop in mouse body temperature
levels of MMP-9 in plasma and lungs (Western blot) [1]: further induce the presence of MMP-9; also recorded: increased
levels of MMP-9 in plasma and lungs (Western blot) ([1]; listed as bivalent inhibitor): significantly increased levels of MMP-9 in plasma and lungs
neutrophil migration towards E. coli-derived LPS ([2]; air pouch, 4 h): increases neutrophil migration
total amount of white blood cells recruited to the pouches [2]: significant increase compared to LPS alone
total amount of white blood cells recruited to the pouches ([2]; listed as bivalent inhibitor): amplified leukocyte influxes
